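In this assay, cells in 96-well plates receive the compound at five concentrations for 48 hours. Endpoints are linearly interpolated between the surrounding concentrations. GI50 is the concentration that inhibits growth by half.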 Active and inactive are the calls of the source. No stated cut-off is given here; in the data, active = GI50 up to about 1.1 µM and inactive = higher.
Experiments:
Assay in all cases: NCI anticancer screen, dose series, 48 h
MDA-MB-231 = system: MDA-MB-231
NCI-H460 = system: NCI-H460
K562 = system: K562
COLO 205 = system: COLO 205
HOP-62 = system: HOP-62
NCI-H522 = system: NCI-H522
EKVX = system: EKVX
SF-539 = system: SF-539
SW-620 = system: SW-620
Malme-3M = system: Malme-3M
MCF7 = system: MCF7
LOX IMVI = system: LOX IMVI
NCI-H23 = system: NCI-H23
CAKI-1 = system: CAKI-1
OVCAR-3 = system: OVCAR-3
Hs-578T = system: Hs-578T
SK-MEL-28 = system: SK-MEL-28
HCT-116 = system: HCT-116
HCT-15 = system: HCT-15
A498 = system: A498
U-251 = system: U-251
OVCAR-8 = system: OVCAR-8
CCRF-CEM = system: CCRF-CEM
HL-60 = system: HL-60
HOP-92 = system: HOP-92
IGROV-1 = system: IGROV-1
TK-10 = system: TK-10
UACC-62 = system: UACC-62
SNB-75 = system: SNB-75
NCI/ADR-RES = system: NCI/ADR-RES
SK-MEL-2 = system: SK-MEL-2
SK-OV-3 = system: SK-OV-3
RXF 393 = system: RXF 393
M14 = system: M14
T47D = system: T47D
UACC-257 = system: UACC-257
SK-MEL-5 = system: SK-MEL-5
MDA-MB-435 = system: MDA-MB-435
MDA-N = system: MDA-N
UO-31 = system: UO-31
SNB-19 = system: SNB-19
A549 = system: A549
DU-145 = system: DU-145
OVCAR-5 = system: OVCAR-5
OVCAR-4 = system: OVCAR-4
KM12 = system: KM12
PC-3 = system: PC-3
HT-29 = system: HT-29
MOLT-4 = system: MOLT-4
HCC 2998 = system: HCC 2998
NCI-H226 = system: NCI-H226
SR = system: SR
SN12C = system: SN12C
ACHN = system: ACHN
SF-295 = system: SF-295
786-0 = system: 786-0
SF-268 = system: SF-268

CC1(C)CC(C)(C)C1=NNC(N)=O
GI50 (MDA-MB-231): > 100 µM (inactive)
GI50 (NCI-H460): > 100 µM (inactive)
GI50 (K562): > 100 µM (inactive)
GI50 (COLO 205): > 100 µM (inactive)
GI50 (HOP-62): > 100 µM (inactive)
GI50 (NCI-H522): > 100 µM (inactive)
GI50 (EKVX): > 100 µM (inactive)
GI50 (SF-539): > 100 µM (inactive)
GI50 (SW-620): > 100 µM (inactive)
GI50 (Malme-3M): > 100 µM (inactive)
GI50 (MCF7): > 100 µM (inactive)
GI50 (LOX IMVI): > 100 µM (inactive)
GI50 (NCI-H23): > 100 µM (inactive)
GI50 (CAKI-1): > 100 µM (inactive)
GI50 (OVCAR-3): > 100 µM (inactive)
GI50 (Hs-578T): > 100 µM (inactive)
GI50 (SK-MEL-28): > 100 µM (inactive)
GI50 (HCT-116): > 100 µM (inactive)
GI50 (HCT-15): > 100 µM
GI50 (A498): > 100 µM (inactive)
GI50 (U-251): > 100 µM (inactive)
GI50 (OVCAR-8): > 100 µM (inactive)
GI50 (CCRF-CEM): > 100 µM (inactive)
GI50 (HL-60): > 100 µM (inactive)
GI50 (HOP-92): > 100 µM (inactive)
GI50 (IGROV-1): > 100 µM (inactive)
GI50 (TK-10): > 100 µM (inactive)
GI50 (UACC-62): > 100 µM (inactive)
GI50 (SNB-75): > 100 µM (inactive)
GI50 (NCI/ADR-RES): > 100 µM (inactive)
GI50 (SK-MEL-2): > 100 µM (inactive)
GI50 (SK-OV-3): > 100 µM (inactive)
GI50 (RXF 393): > 100 µM (inactive)
GI50 (M14): > 100 µM (inactive)
GI50 (T47D): > 100 µM (inactive)
GI50 (UACC-257): > 100 µM (inactive)
GI50 (SK-MEL-5): > 100 µM (inactive)
GI50 (MDA-MB-435): > 100 µM (inactive)
GI50 (MDA-N): > 100 µM (inactive)
GI50 (UO-31): > 100 µM (inactive)
GI50 (SNB-19): > 100 µM (inactive)
GI50 (A549): > 100 µM (inactive)
GI50 (DU-145): > 100 µM (inactive)
GI50 (OVCAR-5): > 100 µM (inactive)
GI50 (OVCAR-4): > 100 µM (inactive)
GI50 (KM12): > 100 µM (inactive)
GI50 (PC-3): > 100 µM (inactive)
GI50 (HT-29): > 100 µM (inactive)
GI50 (MOLT-4): > 100 µM (inactive)
GI50 (HCC 2998): > 100 µM (inactive)
GI50 (NCI-H226): > 100 µM (inactive)
GI50 (SR): > 100 µM (inactive)
GI50 (SN12C): > 100 µM (inactive)
GI50 (ACHN): > 100 µM (inactive)
GI50 (SF-295): > 100 µM (inactive)
GI50 (786-0): > 100 µM (inactive)
GI50 (SF-268): > 100 µM (inactive)

— ChEMBL document CHEMBL1201862, “PubChem BioAssay data set” (2004)
